According to patent US5759768A, “Assays for factors affecting circularization of DNA, assays for factors affecting DNA integration, factors, and uses thereof” (priority 1995, dated 1998):
Read-outs that look alike come from different tables or passages of the source.

Tests used:
[1] = test system: viral DNA integrated into .phi.X174 target DNA; assay type: biochemical, HIV-1; details: for Relative activity, % of standard: target DNA 10 μg/ml
Method: (§1) The chronically HIV-1 infected Molt IIIB human T cell line (HTLV IIIB virus strain) was the source of virus for cell-free infections. This human T cell line constitutively produces a low level of the HTLV-111B strain of HIV-1. Culture supernatant containing a high concentration of virus was prepared by incubating 300×10^6 Molt IIIB cells in 50 ml fresh RPMI 1640 medium containing 20% fetal calf serum and 10 ng of phorbol 12-myristate 13-acetate per ml for 20-24 hours. […] Cytoplasmic extracts (3 ml) were prepared 4-4.5 hours post-infection, by a modification of the procedure of Brown et al., Cell 49: 342-356 (1987).
(§2) At specified times after infection, cells were washed twice with buffer K (20 mM Hepes, pH 7.4, 150 mM KCl, 5 mM MgCl2, 1 mM dithiothreitol, […]) and then lysed at a concentration of 33×10^6 cells per ml in the same buffer containing 0.025% digitonin or 0.025% Triton X-100. Cells were extracted for 10 minutes at room temperature, and the lysate was centrifuged at 1000×g for 3 minutes, and is referred to as "cytoplasmic extract". Cytoplasmic extract was the source of viral DNA for analyses in the assays described below. The pellet from the initial low-speed centrifugation contained cell debris and intact nuclei and is called the "nuclear pellet". Cell extracts from uninfected SupT1 cells were prepared in the same manner.
(§3) DNA samples were layered on 0.8% agarose gels and electrophoresed at 1 V/cm for 15 hour in Tris/acetate/EDTA buffer. After electrophoresis, DNA was blotted by capillary action onto nitrocellulose (0.45 μm, Schleicher & Schuell).
In Vitro Integration Reaction
Pst I-linearized (replicative form III) .phi.X174 DNA, relaxed circular (replicative form II) .phi.X174 DNA, and single-stranded M13 DNA were used as targets for the in vitro integration of viral DNA. Target DNA was added to cytoplasmic extracts of intected SupT1 cells to a concentration of 10 μg/ml, and reaction mixtures were incubated at […]. Reactions, were stopped by the addition of SDS and proteinase K.
Cytoplasmic extracts prepared from SupT1 cells 4 hours after infection with HIV-1 were incubated with exogenously added target DNA under integration reaction conditions. Products of the reactions were analyzed by Southern blot hybridization. The time course of integration into linear .phi.X174 DNA target was determined. Target DNA was added to the extract and the reaction was stopped after 0,5,15,30, or 45 minutes of incubation at 37° C. (FIG. 11, lanes a-e, respectively). Purified linear viral DNA was incubated for 1 hour at 37° C. with cytoplasmic extract prepared from uninfected SupT1 cells (lane f). […] Arrows in the Figure indicate the positions of viral DNA products. L, linear viral DNA:I, integration product. Integration was detected by the shift of linear viral DNA on Southern blots from the characteristic 9.7-kilobase (kb) position to a position corresponding to viral DNA plus target DNA.

[2] = test system: linear viral DNA (circularization); assay type: biochemical, HIV-1
Method: as §1, §2
Viral DNA present in cytoplasmic extracts was deproteinated by incubation with proteinase K (1 mg/ml)/10 mM EDTA/0.5% SDS for 1 hour at 55° C. Samples were extracted successively with phenol/chloroform [1:1 (vol/vol)] and chloroform. DNA was ethanol-precipitated, washed with 70% ethanol, resuspended in 10 mM Tris.HCI (pH 7.4), and treated with RNase A (20 μpg/ml)for 1 hour at […]. before analysis by agarose gel electrophoresis and Southern blotting.
as §3
Cell extracts were prepared from cells four to five hours after infection with HIV-1, using the above-described methods to yield fully functional viral preintegration complexes. […] In all cases, a HIV-1 LTR-containing DNA fragment was used as a hybridization probe. Therefore, only LTR-containing DNA fragments are detected. […] Lane 5: Unintegrated viral DNA prepared by Hirt extraction of SupT1 cells infected 24 hours earlier with concentrated HIV-1. […] Viral DNA was purified from extracts incubated with 1 mM ATP for 15 minutes (lanes 1 and 4), with 1 mM ATP for 45 minutes (lanes 3 and 6), or with 1 mM ATPγS for 45 minutes (lanes 2 and 5). Lanes 1-3: uncut viral DNA; lanes 4-6: viral DNA was cut with SalI prior to electrophorosis. Lane 7: linear viral DNA, prepared from untreated extracts was digested with SalI prior to electrophorosis. Lane 8: unintegrated viral DNA prepared by Hirt extraction of infected cells, as described with respect to FIG. 14, digested with SalI prior to electrophoresis. […] Lanes 1-3. Viral DNA prepared from extracts treated with 1 mM ATP for 15 minutes, 30 minutes and 45 minutes, respectively. Lane 4: Viral DNA prepared from extract treated with 1 mM ATPγS for 45 minutes. Lanes 5-7: products of reactions shown in lanes 1-3, respectively, digested with SalI and PstI prior to electrophoresis. Lane 8: SalI, PstI digestion of viral DNA prepared from extract treated with 1 mM ATP for 90 minutes. Lane 9: SalI, PstI digestion of reaction products shown in lane 4. Lane 10: SalI, PstI digestion of unintegrated viral DNA prepared by Hirt extraction of infected cells.

O=C(O)CN(CCN(CC(=O)O)CC(=O)O)CC(=O)O [EDTA]
detectable integration in vitro ([1]; 1 mM EDTA, buffer devoid of added MgCl2): absence of detectable integration
Relative activity, % of standard ([1]; -Mg2+/+EDTA): 0 % of standard
detectable circle formation [2]: abolished detectable circle formation

[Cl-].[K+] [KCl]
Relative activity, % of standard ([1]; KCl 100 mM): 85 % of standard
detectable integration in vitro ([1]; KCl 250 mM or greater): completely abolished detectable integration
Relative activity, % of standard ([1]; KCl 250 mM): 0 % of standard
KCl concentration of most efficient formation of 1-LTR circles ([2]; 1 mM ATP, 37° C., 90 min): 125 mM
circular forms at KCl concentration ([2]; 100 mM KCl, 1 mM ATP, 90 min): 1-LTR circles were formed almost exclusively
circular forms at higher salt concentrations ([2]; higher KCl concentrations (lane 6: 250 mM), 1 mM ATP, 90 min): most entirely of the 2-LTR form
1-LTR [KCl] optimum ([2]; table): 125 mM
Autointegration [KCl] optimum ([2]; table): 150 to 175 mM
